Test results published in US4468511A, “C-20- And C-23-Modified macrolide derivatives” (Eli Lilly and Company, priority 1983, dated 1984).
≈ marks a conversion by molar mass, not a printed value. Where two headings read alike, the source gives them in different places.

Tests used:
Assay type in all cases: cell-based
[1] = test system: Staphylococcus aureus S13E; assay: microbe, parasite or virus in culture
Description: (§1) The MIC's in Table II were determined by standard agar-dilution assays. The MIC's in Table III were obtained using a conventional broth-dilution microtiter test.

[2] = test system: Staphylococcus epidermidis EPI1; assay: microbe, parasite or virus in culture; details: Staphylococcus epidermidis, EPI1
Description: as §1

Streptococcus sp. 80 = assay: MIC, conventional broth-dilution microtiter test
Description: (§2) Certain of the derivatives are active against some gram-negative bacteria, such as Pasteurella species. The MIC's in Table II were determined by standard agar-dilution assays. The MIC's in Table III were obtained using a conventional broth-dilution microtiter test.

[3] = test system: Pasteurella hemolytica 22C; assay: MIC, conventional broth-dilution microtiter test
Description: as §2

Mycoplasma gallisepticum = assay: MIC, conventional broth-dilution microtiter test; details: Mycoplasmoides gallisepticum
Description: as §2

[4] = test system: Pasteurella multocida 60A; assay: MIC, conventional broth-dilution microtiter test
Description: as §2

Mycoplasma hyorhinis = assay: MIC, conventional broth-dilution microtiter test
Description: as §2

[5] = test system: Pasteurella hemolytica 41D; assay: MIC, conventional broth-dilution microtiter test
Description: as §2

[6] = test system: Pasteurella multocida 17E; assay: MIC, conventional broth-dilution microtiter test
Description: as §2

Mycoplasma synoviae = assay: MIC, conventional broth-dilution microtiter test; details: Mycoplasmopsis synoviae
Description: as §2

[7] = test system: Mycoplasma gallisepticum 34159; assay: MIC, conventional broth-dilution microtiter test; details: Mycoplasmoides gallisepticum
Description: as §2

[8] = test system: Pasteurella multocida 68C; assay: MIC, conventional broth-dilution microtiter test
Description: as §2

[9] = test system: Mycoplasma gallisepticum 41313; assay: MIC, conventional broth-dilution microtiter test; details: Mycoplasmoides gallisepticum
Description: as §2

[10] = test system: Pasteurella multocida 22A; assay: MIC, conventional broth-dilution microtiter test
Description: as §2

[11] = test system: Pasteurella hemolytica 23C; assay: MIC, conventional broth-dilution microtiter test
Description: as §2

[12] = test system: Pasteurella multocida 40G; assay: MIC, conventional broth-dilution microtiter test
Description: as §2

Staphylococcus aureus = assay: MIC, conventional broth-dilution microtiter test
Description: as §2

[13] = test system: Streptococcus pyogenes 9960; assay: MIC, standard agar-dilution assay; details: 9960
Description: as §2

Escherichia coli EC14 = assay: MIC, standard agar-dilution assay; details: Escherichia coli, EC14
Description: as §2

[14] = test system: Klebsiella pneumoniae KAE; assay: MIC, standard agar-dilution assay; details: Klebsiella pneumoniae
Description: as §2

Escherichia coli TEM = assay: MIC, standard agar-dilution assay; details: Escherichia coli
Description: as §2

[15] = test system: Staphylococcus aureus X1.1; assay: MIC, standard agar-dilution assay; details: Staphylococcus aureus, X1.1
Description: as §2

[16] = test system: Streptococcus pneumoniae Park I; assay: MIC, standard agar-dilution assay; details: Streptococcus pneumoniae
Description: as §2

[17] = test system: Streptococcus pyogenes C203; assay: MIC, standard agar-dilution assay; details: Streptococcus pyogenes, C203
Description: as §2

[18] = test system: Klebsiella pneumoniae X26; assay: MIC, standard agar-dilution assay; details: Klebsiella pneumoniae, X26
Description: as §2

[19] = test system: Streptococcus Group D X66; assay: MIC, standard agar-dilution assay
Description: as §2

[20] = test system: Staphylococcus aureus V41; assay: MIC, standard agar-dilution assay; details: Staphylococcus aureus, V41
Description: as §2

[21] = test system: Staphylococcus aureus X400; assay: MIC, standard agar-dilution assay; details: Staphylococcus aureus, X400
Description: as §1

[22] = test system: Staphylococcus epidermidis EPI2; assay: MIC, standard agar-dilution assay; details: Staphylococcus epidermidis, EPI2
Description: as §1

SMILES | MIC [1] [µg/mL] | MIC [2] [µg/mL] | MIC (Streptococcus sp. 80; Streptococcus, SP.80) [µg/mL] | MIC ([3]; Pasteurella, 22C) [µg/mL] | MIC (Mycoplasma gallisepticum) [µg/mL] | MIC ([4]; Pasteurella multocida, 60A) [µg/mL] | MIC (Mycoplasma hyorhinis; Mycoplasma) [µg/mL] | MIC ([5]; Pasteurella, 41D) [µg/mL] | MIC ([6]; Pasteurella multocida, 17E) [µg/mL] | MIC (Mycoplasma synoviae) [µg/mL] | MIC [7]; 34159 [µg/mL] | MIC ([8]; Pasteurella multocida, 68C) [µg/mL] | MIC [9]; 41313 [µg/mL] | MIC ([10]; Pasteurella multocida, 22A) [µg/mL] | MIC ([11]; Pasteurella, 23C) [µg/mL] | MIC ([12]; Pasteurella multocida, 40G) [µg/mL] | MIC (Staphylococcus aureus) [µg/mL] | MIC [13] [µg/mL] | MIC (Escherichia coli EC14) [µg/mL] | MIC [14] [µg/mL] | other results
CCC1OC(=O)CC(O)C(C)C(OC2OC(C)C(OC(C)=O)C(N(C)C)C2OC(C)=O)C(CCOC(=O)Cc2ccccc2)CC(C)C(=O)C=CC(C)=CC1CO (stereo not shown) [Compound 54, 2',4'-Di-O-acetyl-20-O-phenylacetyl-20-dihydro-OMT] | 2 (≈ 2.49 µM) | 2 (≈ 2.49 µM) | 3.12 (≈ 3.89 µM) | 12.5 (≈ 15.6 µM) | 0.048 (≈ 0.0599 µM) | 6.25 (≈ 7.79 µM) | 50 (≈ 62.3 µM) | 12.5 (≈ 15.6 µM) | 12.5 (≈ 15.6 µM) | 25 (≈ 31.2 µM) | 3.12 (≈ 3.89 µM) | 6.25 (≈ 7.79 µM) | 0.78 (≈ 0.973 µM) | 25 (≈ 31.2 µM) | 12.5 (≈ 15.6 µM) | 25 (≈ 31.2 µM) | 0.78 (≈ 0.973 µM) | 4 (≈ 4.99 µM) | > 128 | > 128 | MIC (Escherichia coli TEM): 16 µg/mL (≈ 20 µM); MIC [15]: 2 µg/mL (≈ 2.49 µM); MIC [16]: 0.5 µg/mL (≈ 0.623 µM); MIC [17]: 1 µg/mL (≈ 1.25 µM); MIC [18]: 4 µg/mL (≈ 4.99 µM); MIC [19]: 4 µg/mL (≈ 4.99 µM); MIC [20]: 2 µg/mL (≈ 2.49 µM); MIC [21]: 2 µg/mL (≈ 2.49 µM); MIC [22]: 2 µg/mL (≈ 2.49 µM)
CCC1OC(=O)CC(O)C(C)C(OC2OC(C)C(OC(C)=O)C(N(C)C)C2OC(C)=O)C(CCOC(=O)Cc2ccccc2)CC(C)C(=O)C=CC(C)=CC1COC(=O)Cc1ccccc1 (stereo not shown) [Compound 55, 2',4'-di-O-acetyl-20,23-di-O-phenylacetyl-20-dihydro-OMT] | 4 (≈ 4.35 µM) | 4 (≈ 4.35 µM) | 1.56 (≈ 1.7 µM) | > 50 | 0.097 (≈ 0.105 µM) | 50 (≈ 54.3 µM) | 50 (≈ 54.3 µM) | > 50 | > 50 | 6.25 (≈ 6.79 µM) | 3.12 (≈ 3.39 µM) | > 50 | 0.78 (≈ 0.848 µM) | > 50 | > 50 | > 50 | 0.78 (≈ 0.848 µM) | 8 (≈ 8.69 µM) | > 128 | > 128 | MIC (Escherichia coli TEM): > 128 µg/mL; MIC [15]: 8 µg/mL (≈ 8.69 µM); MIC [16]: 1 µg/mL (≈ 1.09 µM); MIC [17]: 2 µg/mL (≈ 2.17 µM); MIC [18]: > 128 µg/mL; MIC [19]: 8 µg/mL (≈ 8.69 µM); MIC [20]: 8 µg/mL (≈ 8.69 µM); MIC [21]: 8 µg/mL (≈ 8.69 µM); MIC [22]: 2 µg/mL (≈ 2.17 µM)
CCC1CC(C)C(=O)C=CC(C)=CC(CN2CCCCCCC2)C(CC)OC(=O)CC(O)C(C)C1OC1OC(C)C(OC(C)=O)C(N(C)C)C1OC(C)=O (stereo not shown) [Compound 57] | – | – | – | – | – | – | – | – | – | 12.5 (≈ 16.4 µM) | – | – | – | – | – | – | – | – | – | – | MIC (Streptococcus sp. 80; broth-dilution microtiter, Streptococcus sp. 80, read-out: MIC): 0.195 µg/mL (≈ 0.256 µM); MIC ([3]; broth-dilution microtiter, Pasteurella hemolytica 22C, read-out: MIC): 0.78 µg/mL (≈ 1.02 µM); MIC (Mycoplasma gallisepticum; broth-dilution microtiter, Mycoplasma gallisepticum, read-out: MIC): 0.78 µg/mL (≈ 1.02 µM); MIC ([4]; broth-dilution microtiter, Pasteurella multocida 60A, Avian isolate, read-out: MIC): 1.56 µg/mL (≈ 2.04 µM); MIC (Mycoplasma hyorhinis; broth-dilution microtiter, Mycoplasma hyorhinis, read-out: MIC): > 50 µg/mL; MIC ([5]; broth-dilution microtiter, Pasteurella hemolytica 41D, read-out: MIC): 0.78 µg/mL (≈ 1.02 µM); MIC ([6]; broth-dilution microtiter, Pasteurella multocida 17E, Bovine isolate, read-out: MIC): 1.56 µg/mL (≈ 2.04 µM); MIC ([7]; broth-dilution microtiter, Mycoplasma gallisepticum 34159, Resistant strain, read-out: MIC): 50 µg/mL (≈ 65.5 µM); MIC ([8]; broth-dilution microtiter, Pasteurella multocida 68C, read-out: MIC): 0.78 µg/mL (≈ 1.02 µM); MIC ([9]; broth-dilution microtiter, Mycoplasma gallisepticum 41313, Resistant strain, read-out: MIC): 50 µg/mL (≈ 65.5 µM); MIC ([10]; broth-dilution microtiter, Pasteurella multocida 22A, read-out: MIC): 1.56 µg/mL (≈ 2.04 µM); MIC ([11]; broth-dilution microtiter, Pasteurella hemolytica 23C, read-out: MIC): 1.56 µg/mL (≈ 2.04 µM); MIC ([12]; broth-dilution microtiter, Pasteurella multocida 40G, read-out: MIC): 1.56 µg/mL (≈ 2.04 µM); MIC (Staphylococcus aureus; broth-dilution microtiter, read-out: MIC): 0.39 µg/mL (≈ 0.511 µM)
